The subject of assay [1] is α-isomaltosylglucosaccharide-forming enzyme from Arthrobacter globiformis A19. Briefly: Action on saccharides (TLC before and after enzymatic reaction). It is filed as biochemical. On the set-up: key: −: it showed no change; +: it showed a slight reduction of the color spot of the substrate and the formation of other reaction product; ++: it showed a high reduction of the color spot of the substrate and the formationof other reaction product; +++: it showed a substantial disappearance of the substrate spot and the formation of other reaction product. The conditions noted are these: two units/g substrate, substrate 2% (w/v), 30° C., pH 8.4, 24 hours. As for the experimental part:
(§1) It was tested whether saccharides can be used as substrates for the polypeptide of α-isomaltosylglucosaccharide-forming enzyme of the present invention. For the purpose, a solution of maltose, maltotriose, maltotetraose, maltopentaose, maltohexaose, maltoheptaose, isomaltose, isomaltotriose, panose, isopanose, trehalose, kojibiose, nigerose, neotrehalose, cellobiose, gentibiose, maltitol, maltotriitol, lactose, sucrose, erlose, selaginose, maltosyl glucoside, or isomaltosyl glucoside was prepared.
(§2) To each of the above solutions was added two units/g substrate of a purified polypeptide specimen of α-isomaltosylglucosaccharide-forming enzyme from either Bacillus globisporus C11 obtained by the method in Experiment 1-3, Bacillus globisporus N75 obtained by the method in Experiment 2-3, or Arthrobacter globiformis A19 obtained by the method in Experiment 3-3, and the resulting each solution was adjusted to give a substrate concentration of 2% (w/v) and incubated at 30° C. and pH 6.0, except for using pH 8.4 for the enzyme from Arthrobacter globiformis A19, for 24 hours. In order to analyze the saccharides in the reaction mixture before and after the enzymatic reaction, silica gel thin-layer chromatography (hereinafter, abbreviated as “TLC”) was carried out. After two-times development using, as a developer, a mixture solution of n-butanol, pyridine, and water (=6:4:1), and, as a thin-layer plate, “KIESELGEL 60”, an aluminum plate (20×20 cm) for TLC commercialized by Merck & Co., Inc., Rahway, USA, the saccharides in the reaction mixture were examined whether the enzyme acted or not by the coloration of sugars by the sulfuric acid-methanol method.

The test system of assay [2] is α-isomaltosylglucosaccharide-forming enzyme from Bacillus globisporus C11. The description is as above. It is filed as biochemical. The conditions noted are these: two units/g substrate, substrate 2% (w/v), 30° C., pH 6.0, 24 hours. Set-up: key: −: it showed no change; +: it showed a slight reduction of the color spot of the substrate and the formation of other reaction product; ++: it showed a high reduction of the color spot of the substrate and the formationof other reaction product; +++: it showed a substantial disappearance of the substrate spot and the formation of other reaction product. As for the experimental part:
as §1, §2

The test system of assay [3] is α-isomaltosylglucosaccharide-forming enzyme from Bacillus globisporus N75. The assay is described as above. On the set-up: key: −: it showed no change; +: it showed a slight reduction of the color spot of the substrate and the formation of other reaction product; ++: it showed a high reduction of the color spot of the substrate and the formationof other reaction product; +++: it showed a substantial disappearance of the substrate spot and the formation of other reaction product. The conditions noted are these: two units/g substrate, substrate 2% (w/v), 30° C., pH 6.0, 24 hours. It is filed as biochemical. The protocol: as §1, §2

Assay [4] concerns polypeptide having α-isomaltosylglucosaccharide-forming enzyme activity, obtained in Experiment 1-3. Briefly: Reaction product from maltooligosaccharide (sugar composition by HPLC). It is filed as biochemical, Bacillus globisporus C11. On the set-up: unit not given here. The conditions noted are these: 1% (w/v) substrate, 35° C., pH 6.0, 8 hours; for Sugar composition of reaction mixture, substrate Maltopentaose: 0.1 unit/g-solid; for Sugar composition of reaction mixture, substrate Maltotetraose: 0.2 unit/g-solid; for Sugar composition of reaction mixture, substrate Maltotriose / Sugar composition of reaction mixture, substrate Mlatose: two units/g-solid. As for the experimental part: To an aqueous solution containing one percent (w/v) of maltose, maltotriose, maltotetraose, or maltopentaose as a substrate was added the polypeptide having α-isomaltosylglucosaccgaride-forming enzyme activity, obtained in Experiment 1-3, in an amount of two units/g-solid for maltose and maltotriose, 0.2 unit/g-solid for maltotetraose, and 0.1 unit/g-solid for maltopentaose, followed by incubation at 35° C. and pH 6.0 for 8 hours. After stopping the enzymatic reaction by a 10-minutes incubation, sugar compositions in the reaction mixture were measured by HPLC using “YMC Pack ODS-AQ303”, a column commercialized by YMC Co., Ltd., Tokyo, Japan, at a column temperature of 40° C. and a flow rate of 0.5 ml/minutes of water, and using as a detector “RI-8012”, a differential refractometer commercialized by Tosoh Corporation, Tokyo, Japan.

Take `OC[C@H]1O[C@H](O[C@H]2O[C@H](CO)[C@@H](O)[C@H](O)[C@H]2O)[C@H](O)[C@@H](O)[C@@H]1O` [Trehalose, trehalose]: the “Enzyme action, A19 enzyme” value in assay [1] is reported as “−”. The “Enzyme action, C11 enzyme” value in assay [2] is listed as “−”. Also, the “Enzyme action, N75 enzyme” value in assay [3] was “−”.
In the case of maltopentaose, the “Enzyme action, A19 enzyme” value in assay [1] was “+++”. Besides, the “Enzyme action, C11 enzyme” value in assay [2] is “+++”. The “Enzyme action, N75 enzyme” value in assay [3] was “+++”. Also, in assay [4], the “Sugar composition of reaction mixture, substrate Maltopentaose” value (from here on “Sugar composition … substrate Maltopentaose”) worked out at 34.4; the “Sugar composition of reaction mixture, substrate Maltotetraose” value (from here on “Sugar composition … substrate Maltotetraose”) came to 3.5; the “Sugar composition of reaction mixture, substrate Maltotriose” value (from here on “Sugar composition … substrate Maltotriose”) amounted to 0.0; the “Sugar composition of reaction mixture, substrate Mlatose” value (“Sugar composition … substrate Mlatose” below) was 0.0.
On to `OC[C@H]1O[C@H](OC[C@H]2OC(O)[C@H](O)[C@@H](O)[C@@H]2O)[C@H](O)[C@@H](O)[C@@H]1O` (stereo partly drawn) [Isomaltose, isomaltose], for which, in assay [1], the “Enzyme action, A19 enzyme” value was “−”. Moreover, the “Enzyme action, C11 enzyme” value in assay [2] was “−”. Also, the “Enzyme action, N75 enzyme” value in assay [3] is on record as “−”. In addition, in assay [4], the “Sugar composition … substrate Maltopentaose” value is on record as 0.0; the “Sugar composition … substrate Maltotetraose” value worked out at 0.0; the “Sugar composition … substrate Maltotriose” value was 0.0; the “Sugar composition … substrate Mlatose” value was determined as 0.5.
Turning to `OC[C@H]1O[C@H](OC[C@H]2O[C@H](O[C@H]3[C@H](O)[C@@H](O)[C@@H](O[C@H]4[C@H](O)[C@@H](O)[C@@H](O[C@H]5[C@H](O)[C@@H](O)C(O)O[C@@H]5CO)O[C@@H]4CO)O[C@@H]3CO)[C@H](O)[C@@H](O)[C@@H]2O)[C@H](O)[C@@H](O)[C@@H]1O` (stereo partly drawn) [X, α-isomaltosylmaltotriose], in assay [4], the “Sugar composition … substrate Maltopentaose” value was determined as 11.4; the “Sugar composition … substrate Maltotetraose” value was 30.0; the “Sugar composition … substrate Maltotriose” value came out at 2.1; the “Sugar composition … substrate Mlatose” value worked out at 0.0.
For the compound `OC[C@H]1O[C@@](CO)(O[C@H]2O[C@H](CO)[C@@H](O)[C@H](O)[C@H]2O)[C@@H](O)[C@@H]1O` [Sucrose, sucrose], the “Enzyme action, A19 enzyme” value in assay [1] is given as “−”. Besides, the “Enzyme action, C11 enzyme” value in assay [2] was “−”. Besides, the “Enzyme action, N75 enzyme” value in assay [3] is “−”.
As for `OC[C@H]1O[C@H](O[C@H]2O[C@H](CO)[C@@H](O)[C@H](O)[C@H]2O[C@H]2O[C@H](CO)[C@@H](O)[C@H](O)[C@H]2O)[C@H](O)[C@@H](O)[C@@H]1O` [Selaginose, selaginose], in assay [1], the “Enzyme action, A19 enzyme” value was “−”. Besides, the “Enzyme action, C11 enzyme” value in assay [2] was “−”. Further, the “Enzyme action, N75 enzyme” value in assay [3] was “−”.
On to maltoheptaose, for which the “Enzyme action, A19 enzyme” value in assay [1] is listed as “+++”. Further, the “Enzyme action, C11 enzyme” value in assay [2] is on record as “+++”. For the same compound, in assay [3], the “Enzyme action, N75 enzyme” value was “+++”.
Regarding `O=C[C@H](O)[C@@H](O)[C@H](O[C@@H]1O[C@H](CO)[C@@H](O)[C@H](O)[C@H]1O)[C@H](O)CO` [Cellobiose, cellobiose], in assay [1], the “Enzyme action, A19 enzyme” value is recorded as “−”. The “Enzyme action, C11 enzyme” value in assay [2] is “−”. The “Enzyme action, N75 enzyme” value in assay [3] was “−”.
On to `OC[C@H]1O[C@H](OC[C@H]2O[C@H](O[C@H]3[C@H](O)[C@@H](O)[C@@H](O[C@H]4[C@H](O)[C@@H](O)[C@@H](O[C@H]5[C@H](O)[C@@H](O)[C@@H](O[C@H]6[C@H](O)[C@@H](O)C(O)O[C@@H]6CO)O[C@@H]5CO)O[C@@H]4CO)O[C@@H]3CO)[C@H](O)[C@@H](O)[C@@H]2O)[C@H](O)[C@@H](O)[C@@H]1O` (stereo partly drawn) [Y, α-isomaltosylmaltotetraose], for which, in assay [4], the “Sugar composition … substrate Maltopentaose” value is given as 26.8; the “Sugar composition … substrate Maltotetraose” value is recorded as 1.4; the “Sugar composition … substrate Maltotriose” value is given as 0.0; the “Sugar composition … substrate Mlatose” value turned out to be 0.0.
For maltohexaose, the “Enzyme action, A19 enzyme” value in assay [1] is recorded as “+++”. In addition, in assay [2], the “Enzyme action, C11 enzyme” value is given as “+++”. In addition, the “Enzyme action, N75 enzyme” value in assay [3] is “+++”. Also, in assay [4], the “Sugar composition … substrate Maltopentaose” value was found to be 4.6; the “Sugar composition … substrate Maltotetraose” value was determined as 0.0; the “Sugar composition … substrate Maltotriose” value was found to be 0.0; the “Sugar composition … substrate Mlatose” value was 0.0.
For the compound `OC[C@H]1O[C@@H](O[C@H]2[C@H](O)[C@@H](O)C(O)O[C@@H]2CO)[C@H](O)[C@@H](O)[C@H]1O` (stereo partly drawn) [Lactose, lactose], the “Enzyme action, A19 enzyme” value in assay [1] is given as “−”. For the same compound, the “Enzyme action, C11 enzyme” value in assay [2] is “−”. The “Enzyme action, N75 enzyme” value in assay [3] is listed as “−”.
In the case of `OC[C@H]1O[C@H](OC[C@H]2O[C@H](OC[C@H]3OC(O)[C@H](O)[C@@H](O)[C@@H]3O)[C@H](O)[C@@H](O)[C@@H]2O)[C@H](O)[C@@H](O)[C@@H]1O` (stereo partly drawn) [Isomaltotriose, isomaltotriose], the “Enzyme action, A19 enzyme” value in assay [1] is “−”. The “Enzyme action, C11 enzyme” value in assay [2] is given as “−”. In addition, the “Enzyme action, N75 enzyme” value in assay [3] is listed as “−”.
For `OC[C@@H](O)[C@@H](O[C@H]1O[C@H](CO)[C@@H](O)[C@H](O)[C@H]1O)[C@H](O)[C@@H](O)CO` [Maltitol, maltitol], in assay [1], the “Enzyme action, A19 enzyme” value was “−”. In assay [2], the “Enzyme action, C11 enzyme” value was “−”. In addition, in assay [3], the “Enzyme action, N75 enzyme” value is reported as “−”.
`OC[C@H]1O[C@H](OC[C@H]2O[C@H](O[C@H]3[C@H](O)[C@@H](O)[C@@H](O[C@H]4[C@H](O)[C@@H](O)[C@@H](O)O[C@@H]4CO)O[C@@H]3CO)[C@H](O)[C@@H](O)[C@@H]2O)[C@H](O)[C@@H](O)[C@@H]1O` [Glucosylmaltotriose, α-isomaltosylmaltose]: in assay [4], the “Sugar composition … substrate Maltopentaose” value came to 0.0; the “Sugar composition … substrate Maltotetraose” value is listed as 6.8; the “Sugar composition … substrate Maltotriose” value came out at 31.5; the “Sugar composition … substrate Mlatose” value turned out to be 2.4.
For the compound `OC[C@H]1O[C@@H](OC[C@H]2OC(O)[C@H](O)[C@@H](O)[C@@H]2O)[C@H](O)[C@@H](O)[C@@H]1O` (stereo partly drawn) [Gentibiose, gentibiose], the “Enzyme action, A19 enzyme” value in assay [1] is reported as “−”. In addition, the “Enzyme action, C11 enzyme” value in assay [2] is on record as “−”. Further, the “Enzyme action, N75 enzyme” value in assay [3] is “−”.
Consider `OC[C@H]1O[C@H](O[C@H]2[C@H](O)[C@@H](O)[C@@H](OC[C@H]3OC(O)[C@H](O)[C@@H](O)[C@@H]3O)O[C@@H]2CO)[C@H](O)[C@@H](O)[C@@H]1O` (stereo partly drawn) [Isopanose, isopanose], for which, in assay [1], the “Enzyme action, A19 enzyme” value was “++”. In addition, the “Enzyme action, C11 enzyme” value in assay [2] is “++”. Also, the “Enzyme action, N75 enzyme” value in assay [3] is recorded as “++”.
With isomaltosyl glucoside, the “Enzyme action, A19 enzyme” value in assay [1] is “−”. In assay [2], the “Enzyme action, C11 enzyme” value is “−”. Further, the “Enzyme action, N75 enzyme” value in assay [3] is “−”.
Consider `OC[C@H]1O[C@H](O[C@H]2O[C@H](CO)[C@@H](O[C@H]3O[C@H](CO)[C@@H](O)[C@H](O)[C@H]3O)[C@H](O)[C@H]2O)[C@H](O)[C@@H](O)[C@@H]1O` [Maltosyl glucoside, maltosyl glucoside], for which the “Enzyme action, A19 enzyme” value in assay [1] was “++”. In addition, the “Enzyme action, C11 enzyme” value in assay [2] was “++”. For the same compound, the “Enzyme action, N75 enzyme” value in assay [3] is given as “++”.

For the origin of these results see patent US7211422B2, “Polypeptide having α-isomaltosylglucosaccharide synthase activity” (Kabushiki Kaisha Hayashibara Seibutsu Kagaku Kenkyujo, priority 2001, dated 2007).
